Reference: US20040047885A1, “Use of compounds which make it possible to modify the physicochemical properties of the skin and/or the mucous membranes as agents preventing or reducing the adhesion of microorganisms to the latter” (priority 2000, published 2004)
Like-named read-outs stand apart in the source and are kept apart here.

Tested on: Staphylococcus aureus
Format: cell-based
Settings: vs water
Procedure: These compounds are chosen so that the decimal logarithm of the mean number of viable bacteria adhering to reconstructed epidermis, after a test consisting in bringing the said epidermis into contact with the test compound for 2 hours at 37° C., is at least 0.3 less than that obtained by a test carried out with water under the same conditions.
The reconstructed epidermis used in the test indicated above is reconstructed human epidermis, equivalent to human skin, sold by EPISKIN.
The antiadhesion test corresponds to the protocol below:
Before bacterial adhesion, the reconstructed epidermis is brought into contact for 2 hours with 25 mg of the product to be tested at 37° C. 1 ml of bacterial suspension of Staphylococcus aureus at a concentration of […] in Tryptone salt is then added thereto. After incubating for 24 hours at 37° C., the bacterial suspension is emptied and five rinsings are carried out with 1 ml of sterile distilled water. The epidermis, detached from its support, is then ground with the aid of a food processor in 18 ml of Tryptone salt. A decimal dilution is carried out on this suspension in Tryptone salt, and 1 ml of the dilution is then inoculated into 15 ml of Trypticase Soy agar and the medium is incubated for 24 hours at 37° C. The adherent and viable cells are then counted.
This antiadhesion test makes it possible to evaluate the efficacy of molecules alone or of finished products.
The figures presented opposite the compound correspond to the reduction of the decimal logarithm of the mean number of viable Staphylococcus aureus adhering to reconstructed epidermis after treatment with the compound under the conditions defined by the preceding test compared with the decimal logarithm of the mean number of viable Staphylococcus aureus adhering to reconstructed epidermis after treatment with water under the same conditions.

[1] = reconstructed human epidermis (EPISKIN) contacted 2 hours at 37° C. with 25 mg product, then 24 hours with bacterial suspension

Compound	reduction of the decimal logarithm of the mean number of viable Staphylococcus aureus adhering to reconstructed epidermis compared with water [1]	reduction of the decimal logarithm of the mean number of viable Staphylococcus aureus adhering to reconstructed epidermis compared with water (tested at 5% active substance, epidermis contacted 2 hours at 37° C.)
Tartrate of branched C12-C13 dialcohols	2.31	–
Ricinoleic monoethanolamide monosulphosuccinate salt	–	3.84
CCCCCCCCOC(=O)CCCCC(=O)OCCCCCCCC [Dioctyl adipate]	0.90	–
Disodium cocoamphodiacetate	1.34	–
